Some test systems named below: CCRF-CEM leukemia; U251 CNS; RPMI-8226 leukemia; TK-10 renal; SN12C renal; MDA-MB-231 breast; UO-31 renal; SK-OV-3 ovarian; A549 NSCLC; HCT-15 colon.
Holding throughout (test): NCI tumour cell line growth inhibition, 48 h

SMILES strings stand for the structures.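 Protocol summary: plate cells (96-well), add compound at 5 concentrations, incubate 48 h, interpolate endpoints linearly. GI50 = concentration required for 50% inhibition of growth. TGI denotes the concentration required for complete inhibition of growth.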

For the compound `Oc1ccccc1-c1nn(CNc2cccc(Cl)c2)c(=S)o1`, the GI50 in the assay with CCRF-CEM leukemia was 3.63 µM; in the assay on U251 CNS, 4.91 µM; in the assay on RPMI-8226 leukemia it was 15.3 µM; in the assay on TK-10 renal it was 13.1 µM; in the assay with SN12C renal, > 100 µM; with MDA-MB-231 breast, 60.2 µM. In addition, the figures for the GI50 with UO-31 renal, in the assay on SK-OV-3 ovarian and in the assay with A549 NSCLC were > 100 µM, > 100 µM and 74.8 µM, respectively. Also, the TGI is 27.3 µM in the assay on CCRF-CEM leukemia; 39.6 µM in the assay with U251 CNS; 38.5 µM in the assay with RPMI-8226 leukemia; 86.3 µM with TK-10 renal; > 100 µM in the assay with SN12C renal; > 100 µM in the assay on MDA-MB-231 breast. For the same compound, the TGI with UO-31 renal, with SK-OV-3 ovarian and with A549 NSCLC was > 100 µM each time.
As for `CCOC12OC3=C(CC1CC1=C(CCC1=O)O2)C(=O)CC3` (stereo not drawn), the TGI with CCRF-CEM leukemia, in the assay on HCT-15 colon, with U251 CNS, in the assay on RPMI-8226 leukemia, in the assay on TK-10 renal and with SN12C renal was > 100 µM in each case. In addition, the TGI with UO-31 renal, in the assay with SK-OV-3 ovarian and in the assay with A549 NSCLC was > 100 µM throughout.
For `CC(C)(C)NC(C1=CC(C)(C)c2ccccc2C1=O)c1ccccc1` (stereo not drawn), the GI50 with CCRF-CEM leukemia is 1.14 µM; with HCT-15 colon, 1.29 µM; in the assay on U251 CNS it was 1.54 µM; with TK-10 renal, 1.75 µM; with SN12C renal, 1.61 µM; with MDA-MB-231 breast it was 1.58 µM. The GI50 was 1.18 µM in the assay with UO-31 renal, 3.04 µM in the assay with SK-OV-3 ovarian and 2.16 µM with A549 NSCLC. Also, the TGI with CCRF-CEM leukemia turned out to be 4.07 µM; with HCT-15 colon it was 2.68 µM; in the assay with U251 CNS, 2.87 µM; in the assay on TK-10 renal, 3.39 µM; in the assay with SN12C renal, 3.57 µM; in the assay on MDA-MB-231 breast, 3.45 µM. The TGI with UO-31 renal stood at 2.45 µM; in the assay with SK-OV-3 ovarian it was 12.1 µM; in the assay on A549 NSCLC, 5.25 µM.
Regarding `O=c1cccccc1NCCOCCNc1cccccc1=O`, the TGI in the assay on CCRF-CEM leukemia, in the assay with HCT-15 colon, in the assay on U251 CNS, in the assay with RPMI-8226 leukemia, with TK-10 renal and with SN12C renal was > 100 µM in each case. The TGI in the assay with UO-31 renal, in the assay with SK-OV-3 ovarian and in the assay on A549 NSCLC was > 100 µM in each case.
Take `C=CCCC(OCOCCOC)c1cc(C)c(O[Si](C)(C)C(C)(C)C)c(C)c1` (stereo not drawn): the TGI with CCRF-CEM leukemia came to 30.6 µM; in the assay on HCT-15 colon it was 31.4 µM; in the assay on U251 CNS it was 27.3 µM; in the assay on RPMI-8226 leukemia it was 23.4 µM; in the assay on TK-10 renal, 41.2 µM; with SN12C renal, 32.2 µM. Moreover, the results for the TGI with UO-31 renal, in the assay on SK-OV-3 ovarian and with A549 NSCLC were 23.9 µM, 55.1 µM and 38.5 µM, respectively.
In the case of `CC1(C)COC(C23C4C5C2C2C3C4C52I)=N1` (stereo not drawn), the TGI with CCRF-CEM leukemia, with HCT-15 colon, with U251 CNS, in the assay on RPMI-8226 leukemia, in the assay on TK-10 renal and in the assay with SN12C renal was > 100 µM throughout. Moreover, the TGI in the assay with UO-31 renal, with SK-OV-3 ovarian and in the assay on A549 NSCLC was > 100 µM in each case.
Take `O=C(CN1CCN(c2ncnc3ccccc23)CC1)Nc1ccc(Cl)cc1C(=O)c1ccccc1Cl`: the GI50 was 0.791 µM in the assay with CCRF-CEM leukemia; 3.12 µM in the assay with HCT-15 colon; 0.561 µM in the assay with RPMI-8226 leukemia; 0.501 µM with TK-10 renal; 0.943 µM in the assay with SN12C renal; 0.387 µM in the assay with MDA-MB-231 breast. The GI50 in the assay with UO-31 renal is 1.87 µM; with SK-OV-3 ovarian it was 3.5 µM; with A549 NSCLC, 2.66 µM. In addition, the TGI is > 43.8 µM with CCRF-CEM leukemia; 10.8 µM with HCT-15 colon; > 22.2 µM in the assay on RPMI-8226 leukemia; 4.44 µM with TK-10 renal; 3.62 µM with MDA-MB-231 breast; 12.6 µM with UO-31 renal. The values for the TGI with SK-OV-3 ovarian and in the assay on A549 NSCLC were 36.6 µM and > 100 µM, respectively.
As to `C/C(=C\C(C)COCc1ccccc1)[C@H](COCc1ccccc1)OCc1ccccc1` (stereo partly drawn), the TGI in the assay with CCRF-CEM leukemia, in the assay with HCT-15 colon, in the assay with U251 CNS, in the assay with RPMI-8226 leukemia, in the assay with TK-10 renal and in the assay with SN12C renal was > 100 µM in each case. Moreover, the TGI with UO-31 renal, with SK-OV-3 ovarian and with A549 NSCLC was > 100 µM throughout.
Turning to `COc1ccc2c(=O)c(C)c(-c3ccccc3)oc2c1CN(C)C`, the TGI in the assay with CCRF-CEM leukemia, in the assay with HCT-15 colon, with U251 CNS, with RPMI-8226 leukemia, in the assay on TK-10 renal and with SN12C renal was > 100 µM in each case. Also, the TGI with UO-31 renal, with SK-OV-3 ovarian and in the assay with A549 NSCLC was > 100 µM in each case.
For `COc1ccc2c(c1)C(=O)/C(=C/c1cccc(OCC(=O)Nc3nc4c(s3)CCCC4)c1)O2`, the GI50 was 0.863 µM in the assay on CCRF-CEM leukemia; 1.54 µM in the assay with HCT-15 colon; 0.772 µM in the assay on U251 CNS; 0.45 µM in the assay on TK-10 renal; 1.63 µM with SN12C renal; 1.18 µM with MDA-MB-231 breast. Also, the results for the GI50 with UO-31 renal, in the assay on SK-OV-3 ovarian and in the assay with A549 NSCLC were 0.0544 µM, 11.8 µM and 3.31 µM, respectively. Moreover, the TGI in the assay with CCRF-CEM leukemia is > 100 µM; in the assay on HCT-15 colon it was 3.19 µM; with U251 CNS, 4.97 µM; in the assay with TK-10 renal, 0.934 µM; with SN12C renal, 6.81 µM; in the assay with MDA-MB-231 breast it was 5.38 µM. Also, the TGI with UO-31 renal amounted to 0.101 µM; in the assay with SK-OV-3 ovarian it was 25.1 µM; in the assay with A549 NSCLC it was 18.5 µM.
Turning to `COc1ccc(N(CC(=O)NCCC[Te]c2ccccc2)C(=O)c2ccccc2)cc1`, the GI50 in the assay on HCT-15 colon is 2.95 µM; in the assay with U251 CNS it was 2.82 µM; with RPMI-8226 leukemia, 3.18 µM; in the assay on TK-10 renal, 3.85 µM; in the assay with SN12C renal, 2.7 µM; with MDA-MB-231 breast, 2.08 µM. For the same compound, the figures for the GI50 in the assay on UO-31 renal, in the assay with SK-OV-3 ovarian and in the assay on A549 NSCLC were 2.77 µM, 2.55 µM and 0.382 µM, respectively. In addition, the TGI with HCT-15 colon turned out to be 15 µM; with U251 CNS, 9.4 µM; in the assay with RPMI-8226 leukemia it was 19.2 µM; in the assay on TK-10 renal, 11.4 µM; with SN12C renal, 8.51 µM; in the assay with MDA-MB-231 breast it was 4.76 µM. In addition, the values for the TGI with UO-31 renal, with SK-OV-3 ovarian and in the assay on A549 NSCLC were 10.9 µM, 6 µM and 2.14 µM, respectively.

For the origin of these results see PubChem BioAssay (NCI).
